Measurements: BindingDB's records for doi:10.1016/j.bmcl.2015.06.096 (Vanderbilt University Medical Center, 2015)

Biological target: Metabotropic glutamate receptor 5 (Homo sapiens, UniProt P41594)
Assay: Positive allosteric modulation of human mGlu5 receptor expressed in HEK293 cells by calcium mobilization assay

Metabotropic glutamate receptor 5, sequence (P41594 whole entry): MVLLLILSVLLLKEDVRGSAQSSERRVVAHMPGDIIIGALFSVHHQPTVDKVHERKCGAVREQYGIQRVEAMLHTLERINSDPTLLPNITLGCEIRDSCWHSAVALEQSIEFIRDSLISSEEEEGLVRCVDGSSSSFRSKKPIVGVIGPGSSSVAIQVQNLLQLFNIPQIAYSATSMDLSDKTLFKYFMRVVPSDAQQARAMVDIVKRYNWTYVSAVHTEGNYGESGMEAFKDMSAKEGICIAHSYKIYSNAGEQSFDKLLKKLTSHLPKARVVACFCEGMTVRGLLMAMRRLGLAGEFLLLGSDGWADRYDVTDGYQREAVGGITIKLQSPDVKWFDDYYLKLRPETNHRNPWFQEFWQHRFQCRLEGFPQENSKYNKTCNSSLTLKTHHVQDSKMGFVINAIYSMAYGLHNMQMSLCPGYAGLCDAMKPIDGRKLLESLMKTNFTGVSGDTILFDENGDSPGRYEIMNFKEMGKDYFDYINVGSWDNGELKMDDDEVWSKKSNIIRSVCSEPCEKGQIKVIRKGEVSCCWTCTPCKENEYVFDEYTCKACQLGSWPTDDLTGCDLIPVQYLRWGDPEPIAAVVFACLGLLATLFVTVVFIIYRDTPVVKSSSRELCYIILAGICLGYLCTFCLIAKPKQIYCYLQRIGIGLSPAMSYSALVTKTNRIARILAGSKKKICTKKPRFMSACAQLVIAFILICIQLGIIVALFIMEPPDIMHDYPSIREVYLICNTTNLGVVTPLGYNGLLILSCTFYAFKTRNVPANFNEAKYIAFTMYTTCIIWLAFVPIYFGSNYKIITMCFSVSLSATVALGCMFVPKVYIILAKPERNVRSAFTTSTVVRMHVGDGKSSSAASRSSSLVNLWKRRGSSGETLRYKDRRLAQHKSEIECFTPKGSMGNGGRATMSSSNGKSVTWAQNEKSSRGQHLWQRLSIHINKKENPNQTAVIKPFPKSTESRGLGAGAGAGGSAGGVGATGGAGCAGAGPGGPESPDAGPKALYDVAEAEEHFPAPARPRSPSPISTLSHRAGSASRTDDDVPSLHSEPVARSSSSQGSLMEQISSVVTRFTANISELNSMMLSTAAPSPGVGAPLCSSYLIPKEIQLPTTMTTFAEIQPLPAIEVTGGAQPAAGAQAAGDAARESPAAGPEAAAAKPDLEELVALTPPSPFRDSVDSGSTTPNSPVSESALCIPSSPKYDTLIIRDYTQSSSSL

In the case of `O=C(c1c(F)cccc1F)N1CCc2nc(COc3cccc(F)c3)oc2C1`, the EC50 is reported as 323 nM.
